Where only a bound is given, the exact number is not on record here.

Among the data in a melting point compilation (Tetko et al.; mined from patent text by program, amines drawn as free bases though some values may be those of a salt) are melting point values, retold here.

One may read the melting point as the temperature of the solid-liquid transition. `NS(=O)(=O)c1ccc(-c2oc(C(F)(F)F)nc2-c2ccccc2)cc1` registered a melting point of 137 to 138 °C. With `O=C(Nc1cccnc1)N1CCc2cc(I)c(Cl)cc21` the figure was above 200 °C; with `CCCCCCCCCCCCCCCCSCC(CN)NC(=O)OC` (configuration not stated), 49 to 50.5 °C. For the molecule `O=c1cc(-c2ccccc2)oc2cccc(OCCO)c12`, the melting point was determined as 124 °C. With `CCn1cc(-c2cccc(C(F)(F)F)c2)c(=O)n1-c1ccccc1` the figure was 156 to 157 °C; with `Oc1ccc(C=Cc2ccncc2)cc1`, 272 to 275 °C; with `N#Cc1c(Br)[nH]c(-c2ccccc2)c1C#N`, 225 to 258 °C. Consider `CCCCCCCNC(=O)Nc1ccccc1CCc1cc(C(C)(C)C)c(O)c(C(C)(C)C)c1`, for which the melting point was found to be 100 °C. With `O=C(O)CNC(=O)c1ccc([N+](=O)[O-])cc1F` the figure was 156 to 158 °C; with `Nc1ncnc2c1c(-c1cn[nH]c1)nn2Cc1oc2ccc(F)cc2c(=O)c1-c1ccccc1`, 211 to 214 °C; with `COc1cc(OC)cc(-c2ncoc2-c2ccc(OC)c(O)c2N)c1`, 140 to 143 °C. With `COCCOCCNc1ncnc2c1cnn2-c1cc(C)cc(C)c1` the figure was 90.4 °C. With `N#Cc1ccc(O)c(C2(C(=O)O)CCCC2)c1` the figure was 153 to 154 °C. Take `CC(C)C(F)(C(=O)O)c1ccc(Cl)cc1` (configuration not stated): the melting point turned out to be 120 °C. With `COC(=O)c1cc(C(=O)NC2CCCC2)c2cc(Cc3ccc(F)cc3)cnc2c1O` the figure was 221 to 222 °C; with `CC(C)(C)c1cc(Cl)c2c(c1)C=NS(=O)(=O)O2`, 127 to 130 °C; with `CC(C)Oc1cccc(N(C)C(=O)N(C)Cc2c(-c3ccccc3)c3cc(Cl)ccc3c(=O)n2C)c1`, 143 to 144 °C. With `O=c1c2ccccc2sc2ccc(SCCO)cc12` the figure was 94 °C; with `COc1ccc(-c2cc(C(F)F)nn2-c2ccc(S(N)(=O)=O)cc2)cc1`, 133 to 135 °C. With `CS(=O)(=O)Nc1ccc(/C=C\COCCCCCCNCC(O)c2cc(O)cc(O)c2)cc1` (configuration not stated) the figure was 79 to 82 °C. As to `N#CC1(c2ccccc2)CCN(Cc2ccccc2)CC1`, the melting point fell in the range of 73 to 74 °C. With `Cc1cc(Br)c(Cl)c(C(=O)O)c1` the figure was 160 °C; with `FC(F)(F)C1(c2cc(Cl)cc(Cl)c2)CC(c2ccc(-n3cncn3)cc2)=NO1` (configuration not stated), above 250 °C; with `CNc1nc(CSC)c(-c2ccncc2)s1`, 135 to 138 °C. With `C[C@H](NC(=O)C[C@@H](CCBr)c1ccc(F)cc1)c1ccccc1` the figure was 156 to 158 °C; with `CCN(CC)CCOc1ccc(CNc2ncc3c(n2)N(C)C(=O)N(c2c(Cl)cccc2Cl)C3)cc1`, 137 to 138 °C; with `COc1cc(C(OC(C)=O)C(COC(C)=O)[N+](=O)[O-])cc(OC)c1OC` (configuration not stated), 107 to 109 °C. With `CC(C)(C)OC(=O)N[C@H](C(=O)Br)c1ccccc1` the figure was 108 to 109 °C; with `CN(c1ccc(S(C)(=O)=O)cc1)S(=O)(=O)c1cccc(NC(=O)c2ccc(S(C)(=O)=O)cc2)c1`, 213 to 215 °C; with `CC(Oc1cccc2c(Oc3ccc(C(F)(F)F)cc3F)cccc12)C(=O)O` (configuration not stated), 166 °C. In turn, `COc1cccc(C#CC#Cc2cc(C(F)(F)F)ccc2C(F)(F)F)c1` returned a melting point of 37 °C. For `CCCCN(C(=O)c1cc(C(C)(C)C)c(OC(=O)c2cc(C(C)(C)C)c(O)c(C(C)(C)C)c2)c(C(C)(C)C)c1)C1CC(C)(C)N(OC(C)=O)C(C)(C)C1`, the melting point lay within 230 to 232 °C. With `O=C(ON1C(=O)CCC1=O)c1ccccc1` the figure was 178 °C.

Take `CCCC(=O)Nc1cccc(C2(c3cc(C(=O)CC)n(CC)c3)N=C(N)N(C)C2=O)c1` (configuration not stated): the melting point is 201 to 205 °C.

Take `O=C(NCc1ccccc1)c1cc(O)c(O)c([N+](=O)[O-])c1`: the melting point was in the range of 185 to 189 °C.

Molecule `CO/C=C(/C(=O)OC)c1ccccc1COc1cccc(Cl)n1` returned a melting point of 91 to 92 °C. Regarding `O=C1Nc2ccccc2SC1c1ccc(F)cc1` (configuration not stated), the melting point fell in the range of 216 to 219 °C. Molecule `CS(=O)(=O)C(=C1CN(C(c2ccccc2)c2ccccc2)C1)c1cccc(C#N)c1` returned a melting point of 152 °C.

For `O=S(=O)(/C=C/c1ccc(I)cc1)CS(=O)(=O)/C=C/c1ccc(I)cc1`, the melting point lay in the range of 253 to 255 °C. With `CNc1ccc(C(=O)OC)c(S(=O)(=O)NC(C)(C)C)c1` the figure was 120 to 124 °C; with `CC1=NN(c2ccccc2)C(=O)C1C(=O)Nc1ccc(O)cc1` (configuration not stated), 135 to 140 °C; with `CN(CCO)Cc1cc(C(=O)c2ccccc2)cc(C2CCCCC2)c1O`, 92 to 93 °C. With `N=Cc1ccccc1[N+](=O)[O-]` the figure was 117 to 119 °C; with `Cc1cccc(C(=O)O)c1OC1CCOC1=O` (configuration not stated), 129 to 131 °C. With `CCCN(Cc1ccc(-c2ccccc2-c2nnnn2C(c2ccccc2)(c2ccccc2)c2ccccc2)cc1)c1ncncc1C(=O)OCC` the figure was 100 to 103 °C; with `CCCCc1nc2cnc3cc(C)ccc3c2o1`, 52 to 55 °C. As for `CCCc1cc(=O)oc2cc(OS(=O)(=O)c3ccc(C)cc3)c3c(c12)OC(C)(C)C=C3`, the melting point lay in the range of 150 to 151 °C. With `CN(C)CCOc1ccc2c(c1)OCC21C(=O)Nc2ccccc21` (configuration not stated) the figure was 95 to 97 °C; with `COc1cc2c(Nc3ccc(Oc4cccnc4)cc3)c(C#N)cnc2cc1OCC1CCN(C)CC1`, 182 to 184 °C; with `CCn1c2c(c3ccccc3c1=O)C(=O)c1ccccc1-2`, 188 to 189 °C. The molecule `COc1cccc(CC(=O)O)c1OCCCc1cn(-c2ccc(C(C)=O)cn2)nc1C(C)C` registered a melting point of 148 to 149 °C. With `CCc1cnc2c(NC(=O)c3c(Cl)cccc3Cl)cccc2c1CN1CCN(C)C1=O` the figure was 202 to 203 °C.

On to `CCN1C(=O)C(C)(C)C(=O)N(C)c2cc(CCN(CCn3cc(C)c4oc(C)cc4c3=O)Cc3cc(C)nn3C)ccc21`, for which the melting point was in the range of 168 to 170 °C. Consider `Cc1cccc(CCOc2ccc(C#N)cc2)n1`, for which the melting point fell in the range of 66 to 67 °C. With `O=[N+]([O-])c1ccc(Cl)c(NC(=S)NCCCO)c1`, the melting point was 127 °C. With `CCOC(=O)c1ccccc1-c1ccc2nc[nH]c(=O)c2c1` the figure was 151 to 158 °C; with `Cc1c(-c2ccccc2)c(OCc2ncnn2C)nn2c(-c3ccccc3)nnc12`, 195 °C; with `CCCc1nn(-c2ccc(C(F)(F)F)cn2)cc1CCCCO`, 80 to 81 °C.

The molecule `Nc1ccc2oc(-c3ccccc3)c(O)c(=O)c2c1` had a melting point of 211 to 212 °C. `COCc1noc(-c2ncn3c2CN(C)C(=O)c2c(Cl)cccc2-3)n1` registered a melting point of 213 to 215 °C. Regarding `COC(=O)c1ccc(C)c(NC(=O)c2cccc([N+](=O)[O-])c2)c1`, the melting point is 208 to 209 °C. With `CN(C)S(=O)(=O)Oc1ccccc1S(N)(=O)=O` the figure was 88 to 89 °C; with `CC(C)=CCNc1ncnc2c1nc(N)n2C1OC(CO)C(O)C1O` (configuration not stated), 121 to 124 °C; with `COc1ccc(-c2nc(-c3ccccc3Cl)sc2-c2ccc(S(C)(=O)=O)cc2)cc1`, 172 to 174 °C.

Turning to `Cc1c(Br)cccc1N1CCn2c(cc3ccccc32)C1=O`, the melting point fell in the range of 178 to 180 °C. In the case of `CC(C)(C)C(OCc1ccc(Cl)cc1)c1cncnc1` (configuration not stated), the melting point was 77 to 78.5 °C.

For `Cc1nc2c(N)nc3cccnc3c2n1Cc1cc(-c2ccc(F)cc2)no1`, the melting point lay within 239 to 240 °C. With `CN(CCOCCO)S(=O)(=O)c1ccc(NC=C2C(=O)Nc3ccc4ncsc4c32)cc1` the figure was 165 °C; with `COc1ccc2[nH]c(S(=O)Cc3ncc(F)c(N4CCOCC4)c3C)nc2c1` (configuration not stated), 158 to 160 °C. `CS(=O)(=O)c1ccc(C2=C(c3ccc(F)cc3)C(=O)C2(Cl)Cl)cc1`: the melting point was in the range of 116 to 118 °C. With `COCOc1c(-c2cccc(C=CC(=O)O)c2)ccc2c1C(C)(C)CCC2(C)C` the figure was 188 to 189 °C; with `CC(C)(C)C(O)(c1ccccc1)c1cc(Cl)ccc1O` (configuration not stated), 146 °C. The molecule `CCCCCS(=O)(=O)NCC(C)Cc1ccc(OCCOC)cc1Oc1ncc(C(F)(F)F)cc1Cl` (configuration not stated) had a melting point of 80 to 82 °C. With `CCOC(=O)c1cc(C(C)=O)c(=O)[nH]c1C(=O)OCC` the figure was 101 to 110 °C; with `NC(=O)C(Cc1ccccc1)=NNc1ccc(C(O)(C(F)(F)F)C(F)(F)F)cc1`, 211 to 213 °C. With `COc1ccc2cccc(N3CCN(CCCCOc4ccc5c(n4)NC(=O)NCC5)CC3)c2c1` the figure was 155 to 158 °C. With `CCCCc1cn(CCC)c(=O)n1Cc1ccc(-c2ccccc2-c2nnn[nH]2)nc1` the figure was 164 to 165 °C; with `Cc1ncn(-c2nccc3[nH]c(=O)ccc23)n1`, above 300 °C; with `Cc1cc(-n2ccnc2)c2cccc(OCc3c(Cl)ccc(S(=O)(=O)N4CCC[C@H]4C(=O)NCCN4CCCC4)c3Cl)c2n1`, 105 °C. `CC(NC(=O)Cc1cc(F)cc(F)c1)C(=O)NC1C(=O)NC(Cc2ccccc2)c2ccccc21` (configuration not stated): the melting point was 106 to 107 °C. With `Nc1ccc2ccccc2c1[N+](=O)[O-]` the figure was 123 to 125 °C.

Consider `Oc1c(Cl)nc(-c2ccccc2)nc1Cl`, for which the melting point fell in the range of 138 to 140 °C.

`CCn1nc2c(N)nc3ccccc3c2c1CCCCNS(C)(=O)=O` showed a melting point of 192 to 194 °C.

The molecule `CCc1cccc(NC(=O)NC2CC(C3CCCCC3)c3ccccc3N(CC(=O)NC(C)(C)C)C2=O)c1` (configuration not stated) returned a melting point of 145 to 155 °C. With `O=C(O)c1cnc(C(=O)O)c2ccccc12` the figure was 216 °C.

`O=Cc1ccc2c(c1)ncn2-c1cccc(Br)c1` gave a melting point of 179 to 181 °C. `CCCCCNc1nc(C)c(C(=O)c2ccc(Cl)c([N+](=O)[O-])c2)s1` gave a melting point of 99 to 104 °C.
